Patent US8709440B2, “Agent for expelling parasites in humans, animals or birds” (Momentum Animal Cure BVBA, priority 2009, dated 2014)

tested on: helminths that were resistant to ivermectine, pyrantel, praziquantel and moxidectine; experiment: Treatment of Horse 4 severely infected with resistant parasites; type: in vivo; conditions: Horse 4 severely infected with parasites
Description: Horse 4 was treated with 38 g Asafoetida powder with Arabic gum mixed in milk and with cereal.

Q: How did the “result of several treatments” value turn out when `CN1CCCN=C1/C=C/c1cccs1` [pyrantel] was run?
A: Its value is “had no result”.

Q: ivermectine was tested. Which “result of several treatments” value did it give?
A: The value was “had no result”.

Q: `CO/N=C1\C[C@]2(C[C@@H]3C[C@@H](C/C=C(\C)C[C@@H](C)/C=C/C=C4\CO[C@@H]5[C@H](O)C(C)=C[C@@H](C(=O)O3)[C@]45O)O2)O[C@H](/C(C)=C/C(C)C)[C@H]1C` [moxidectine] was tested. Which “result of several treatments” value did it give?
A: The value was “had no result”.

Q: `O=C(C1CCCCC1)N1CC(=O)N2CCc3ccccc3C2C1` (stereo not shown) [praziquantel] was tested. Which “result of several treatments” value did it give?
A: The value was “had no result”.
